According to patent US5679787A, “Process for isomerization of compound of aldose structure into compound of ketose structure, and isomerization agent or accelerator used therein” (priority 1992, dated 1997):

Tests used:
[1] = Toxicity, LD50 on oral administration to mice; details: mouse, in vivo, orally administered to mice
Source text: (§1) The organogermanium compound used in the present invention has very low toxicity.

[2] = Toxicity, LD50 on oral administration to rats; details: rat, in vivo, orally administered to rats
Source text: as §1

glucose isomerase = assay: Enzymatic isomerization of glucose into fructose in presence of organogermanium compound (Example 1); format: biochemical, Streptomyces griseofuscus S-41; details: 60° C., pH 8.0, substrate solution 40% glucose and 1.2M organogermanium compound, blank 50%
Method: A solution containing 40% glucose and 1.2M organogermanium compound was prepared according to the following procedure. 0.8 g of anhydrous glucose was dissolved in 0.8 ml of deionized water. To the solution was added, in small portions, 0.407 g of the organogermanium compound (1) as an isomerization accelerator of the present invention [a compound represented by formula (II) wherein n=1, R1 =R2 =R3 and X1 =OH] while the pH of the solution was maintained at very weak alkalinity, to completely dissolve the compound in the solution. Thereto was added 4.9 mg of magnesium sulfate, and the pH of the resulting mixture was adjusted to 8.0. Then, deionized water was added to make the total volume 2.0 ml, whereby a substrate solution was prepared.
Two other substrate solutions containing the organogermanium compounds (18) [a compound represented by formula (II) wherein n=1, R1 =R2 =H, R3 =NH2 and X1 =OH] and (23) [a compound represented by formula (II) wherein n=1, R1 =H, R2 =C6 H5, R3 =NH2 and X1 =OH], respectively, were prepared in the same manner as above except that the organogermanium compounds (18) and (23) were used in amounts of 0.443 g and 0.638 g, respectively (these amounts corresponded to 1.2M of germanium).
An isomerization enzyme (glucose isomerase) extracted from the cells of Streptomyces griseofuscus S-41 was purified according to a known method using an ion exchange column, a gel filtration column or the like, until a single band was obtained electrophoretically. The resulting purified enzyme was used as a standard enzyme.
In a small test tube were placed 0.7 ml of the above substrate solution, 0.1 ml of a 200 mM MOPS buffer solution (pH 8.0) and 0.2 ml of a solution containing the above-prepared standard enzyme (5.69 mg/ml). […] The amount of formed fructose in the microvial was determined by high-performance liquid chromatography using a column [LC7A, SCR-101 (N) manufactured by Shimadzu Corp.] to examine the change with time, of ratio of isomerization of glucose into fructose.

[3] = Isomerization without enzyme (Example 3), glucose; details: remark (1): initial pH 8.0-8.53
Method: 200 μl of the 14% or 28% glucose solution and 200 μl of the organogermanium compound solution (pH 8.00 or 8.53) were placed in a small test tube. Also, 200 μl of the 14% or 28% glucose solution and 200 μl of the weakly alkaline electrolytic water were placed in a small test tube. Each test tube was thoroughly shaken and then placed in a water bath of 80° C. to give rise to a reaction. […] Thereafter, the mixture was diluted 100-fold with deionized water to determine the amount of formed fructose and the amount of residual glucose by high-performance liquid chromatography using 7A (a column) manufactured by Shimadzu Corp. […]

[4] = Isomerization without enzyme (Example 3), mannose; details: remark (2): reaction time 6 h, initial pH 10.0-10.6
[5] = Isomerization without enzyme (Example 3), arabinose; details: remark (2):, initial pH 10.0-10.6
[6] = Isomerization without enzyme (Example 3), ribose; details: NaOH; remark (2): reaction time 6 h, initial pH 10.0-10.6; blank 3.9-19.5%
[7] = Isomerization without enzyme (Example 3), xylose; details: remark (2): reaction time 6 h, initial pH 10.0-10.6
Method: [The procedure below names another target; the source says it served here with some conditions changed.] 200 μl of the 14% or 28% glucose solution and 200 μl of the organogermanium compound solution (pH 8.00 or 8.53) were placed in a small test tube. Also, 200 μl of the 14% or 28% glucose solution and 200 μl of the weakly alkaline electrolytic water were placed in a small test tube. Each test tube was thoroughly shaken and then placed in a water bath of 80° C. to give rise to a reaction. 1-3 hours later, 50 μl of the reaction mixture was added to 50 μl of 0.5N HClO4 to terminate the reaction. Thereafter, the mixture was diluted 100-fold with deionized water to determine the amount of formed fructose and the amount of residual glucose by high-performance liquid chromatography using 7A (a column) manufactured by Shimadzu Corp.
Other compounds represented by formula (I) were subjected to 3-hour isomerization in the same manner as in Example 2.

[8] = Isomerization without enzyme (Example 3), lactose; details: remark (3): reaction time 6 h, initial pH 10.0-11.0
[9] = Isomerization without enzyme (Example 3), maltose; details: remark (3): reaction time 6 h, initial pH 10.0-11.0
[10] = Isomerization test at pH 10 (Example 4), galactose; details: pH 10 with aqueous sodium hydroxide, 80° C., 3 hours; blank 7.60
Method: (§2) The same isomerization test as in Example 2 was conducted with slight modifications.
(§3) That is, 200 μl of one of various saccharide solutions and 200 μl of one of various organogermanium compound solutions were placed in a small test tube. The mixture was adjusted to pH 10 with an aqueous sodium hydroxide solution, after which the tube was placed in a water bath of 80° C. for a reaction. 3 hours later, the reaction was terminated and the amount of each saccharide isomerized was determined by high-performance liquid chromatography using 7A (a column) manufactured by Shimadzu Corp.

[11] = Isomerization test at pH 10 (Example 4), ribose; details: pH 10 with aqueous sodium hydroxide, 80° C., 3 hours; blank 2.89
Method: as §2, §3

[12] = Isomerization test at pH 10 (Example 4), maltose; details: pH 10 with aqueous sodium hydroxide, 80° C., 3 hours; blank 12.59
Method: as §2, §3

[13] = Isomerization test at pH 10 (Example 4), arabinose; details: pH 10 with aqueous sodium hydroxide, 80° C., 3 hours; blank 2.75
Method: as §2, §3

[14] = Isomerization test at pH 10 (Example 4), xylose; details: pH 10 with aqueous sodium hydroxide, 80° C., 3 hours; blank 5.59
Method: as §2, §3

[15] = Isomerization test at pH 10 (Example 4), mannose; details: pH 10 with aqueous sodium hydroxide, 80° C., 3 hours; blank 12.48
Method: as §2, §3

[16] = electrolytic water, blank 0.4-1.2%
[17] = electrolytic water, blank 0-0.4%

Structure (SMILES): O=C(O)C[CH2][Ge](=[O])[O][Ge](=[O])[CH2]CC(=O)O [Compound 1]
- LD50 [1]: ≥ 6000 mg/kg
- LD50 [2]: ≥ 10000 mg/kg
- isomerization ratio in equilibrium (glucose isomerase): 75%
- Isomerization ratio Glucose NaOH ([3]; NaOH, blank 32.3%): 98.9%
- Isomerization ratio Glucose Electrolytic water ([3]; electrolytic water, blank 2.1-3.1%): 94.7%
- Isomerization ratio Mannose NaOH ([4]; NaOH, blank 3.9-19.5%): 24.3%
- Isomerization ratio Mannose Electrolytic water [4, 16]: 13.1%
- Isomerization ratio Arabinose NaOH ([5]; NaOH, blank 3.9-19.5%): 22.6%
- Isomerization ratio Arabinose Electrolytic water [5, 16]: 12.6%
- Isomerization ratio Ribose NaOH [6]: 44.7%
- Isomerization ratio Xylose NaOH ([7]; NaOH, blank 3.9-19.5%): 30.3%
- Isomerization ratio Xylose Electrolytic water [7, 16]: 19.6%
- Isomerization ratio Lactose NaOH ([8]; NaOH, blank 34.0-38.6%): 70.3%
- Isomerization ratio Lactose Electrolytic water [8, 17]: 58.3%
- Isomerization ratio Maltose NaOH ([9]; NaOH, blank 34.0-38.6%): 68.7%
- Isomerization ratio Maltose Electrolytic water [9, 17]: 43.2%
- Isomerization (%) Galactose [10]: 38.67%
- Isomerization (%) Ribose [11]: 27.76%
- Isomerization (%) Maltose [12]: 78.91%
- Isomerization (%) Arabinose [13]: 20.87%
- Isomerization (%) Xylose [14]: 40.66%
- Isomerization (%) Mannose [15]: 37.23%
